In patent US8394971B2, “Indole derivatives as selective androgen receptor modulators (SARMS)” (Janssen Pharmaceutica N.V., priority 2004, dated 2013):

The compounds below were run on testosterone-enhanced ventral prostate and seminal vesicle weights in castrated male Sprague Dawley rats (assay: Ventral Prostate and Seminal Vesicle Weight In Vivo Assay). Conditions: immature castrated rats; once daily for five days, usually orally at 40 mg/kg, with testosterone propionate 2 mg/kg s.c.
Design: species or system rat
Description: Immature (approximately 50 g) castrated male Sprague Dawley rats (Charles River) were treated once daily for five days with test compound (usually given orally at 40 mg/kg in a volume of 0.3 mL, in 30% cyclodextrin or 0.5% methylcellulose vehicle) and with testosterone propionate (given subcutaneously by injection at the nape of the neck at 2 mg/kg, in a volume of 0.1 mL in sesame oil). On the sixth day, the rats were euthanized by asphyxiation in carbon dioxide. Ventral prostates and seminal vesicles were removed and their wet weights determined.
A test compound was said to be “active” if the non weight adjusted prostate weight was ≦40 mg or the % Inhibition prostate weight, body weight adjusted was ≧40% @2 mg/day dosage.

| Compound | active / inactive (inhibition of testosterone-enhanced prostate weight) |
| --- | --- |
| CC(C)(O)c1[nH]c2cc(C(F)(F)F)c(C#N)cc2c1C#N [compound 295] | inactive |
| CC(O)(c1cc2cc(C#N)c(C(F)(F)F)cc2[nH]1)C(F)(F)F (stereo not shown) [Compound #329, 2-(2,2,2-Trifluoro-1-hydroxy-1-methyl-ethyl)-6-trifluoromethyl-1H-indole-5-carbonitrile] | active |
| CCSCC(O)(CC)c1cc2cc(Cl)c(C(F)(F)F)cc2[nH]1 (racemic) [compound 181] | active |
| CCSCC(C)(O)c1cc2cc(C#N)ccc2[nH]1 (racemic) [compound 403] | inactive |
| N#Cc1cc2cc(C3(O)CCSC3)[nH]c2cc1C(F)(F)F (stereo not shown) [Compound #15] | inactive |
| CCSCC(C)(O)c1cc2cc(C)c(C(F)(F)F)cc2[nH]1 (racemic) [compound 414] | inactive |
| CCSCC(C)(O)c1[nH]c2cc(C(F)(F)F)c(C#N)cc2c1C#C[Si](C)(C)C (racemic) [compound 325] | inactive |
| CCSCC(O)(CSCC)c1cc2cc([N+](=O)[O-])c(C(F)(F)F)cc2[nH]1 [compound 13] | inactive |
| CC(C)(O)c1[nH]c2cc(C(F)(F)F)c(C#N)cc2c1I [compound 278] | active |
| CCc1c(C(C)(O)CS(=O)(=O)CC)[nH]c2cc(C(F)(F)F)c(C#N)cc12 (single isomer, unassigned) [compound 354] | active |
| CCS(=O)(=O)CC(C)(O)c1cc2cc([N+](=O)[O-])c(C(F)(F)F)cc2[nH]1 (stereo not shown) [compound 175] | active |
| CC(O)(c1cc2cc(C#N)c(C(F)(F)F)cc2[nH]1)C(F)(F)F (stereo not shown) [Compound #334, 2-(2,2,2-Trifluoro-1-hydroxy-1-methyl-ethyl)-6-trifluoromethyl-1H-indole-5-carbonitrile] | active |
| Cc1c(C(C)(C)O)[nH]c2cc(C(F)(F)F)c(C#N)cc12 [compound 289] | active |
| CCSCC(O)c1[nH]c2cc(C(F)(F)F)c(C#N)cc2c1I (racemic) [compound 411] | inactive |
| CCSCC(C)(O)c1cc2cc(C#N)c(C(F)(F)F)cc2n1COC (racemic) [compound 322] | inactive |
| CC(C)(O)c1[nH]c2cc(C(F)(F)F)c(Cl)cc2c1Br [compound 280] | inactive |
| CC(O)(COc1ccc(C#N)cc1)c1cc2cc(C#N)c(C(F)(F)F)cc2[nH]1 (stereo not shown) [Compound #426, 2-[2-(4-Cyano-phenoxy)-1-hydroxy-1-methyl-ethyl]-6-trifluoromethyl-1H-indole-5-carbonitrile] | inactive |
| CC(O)(C[S+]([O-])c1ccc(F)cc1)c1cc2cc(Cl)c(C(F)(F)F)cc2[nH]1 (stereo not shown) [compound 113] | inactive |
| CC(C)(O)c1cc2cc(Cl)c(C(F)(F)F)cc2[nH]1 [compound 285] | inactive |
| CC(O)(COc1ccc(C#N)c(C(F)(F)F)c1)c1cc2cc(C#N)c(C(F)(F)F)cc2[nH]1 (stereo not shown) [Compound #429, 2-[2-(4-Cyano-3-trifluoromethyl-phenoxy)-1-hydroxy-1-methyl-ethyl]-6-trifluoromethyl-1H-indole-5-carbonitrile] | inactive |
| CC(O)(c1[nH]c2cc(C(F)(F)F)c(C#N)cc2c1I)C(F)(F)F (racemic) [compound 330] | active |
| CC(O)(CS(=O)(=O)c1ccc(F)cc1)c1cc2cc(Cl)c(C(F)(F)F)cc2[nH]1 (stereo not shown) [compound 85] | inactive |
| CC(O)(COc1cccc([N+](=O)[O-])c1)c1cc2cc(C#N)c(C(F)(F)F)cc2[nH]1 (stereo not shown) [Compound #428, 2-[1-Hydroxy-1-methyl-2-(3-nitro-phenoxy)-ethyl]-6-trifluoromethyl-1H-indole-5-carbonitrile] | inactive |
| CC(C)(O)c1cc2cc([N+](=O)[O-])c(C(F)(F)F)cc2n1S(C)(=O)=O [compound 273] | inactive |
| CCSCC(C)(O)Cc1cc2cc([N+](=O)[O-])c(C(F)(F)F)cc2[nH]1 (stereo not shown) [compound 10] | inactive |
| CCSCC(C)(O)c1[nH]c2cc(C(F)(F)F)c(C#N)cc2c1I (racemic) [compound 324] | inactive |
| CSCn1c(C(C)(O)C(F)(F)F)cc2cc(C#N)c(C(F)(F)F)cc21 (racemic) [compound 333] | active |
| CCSCC(C)(O)c1[nH]c2cc(C(F)(F)F)c(C#N)cc2c1I (single isomer, unassigned) [compound 349] | active |

| Compound | active / inactive (inhibition of testosterone-enhanced prostate weight) |
| --- | --- |
| CSCC(C)(O)c1cc2cc(Cl)c(C(F)(F)F)cc2n1S(C)(=O)=O (stereo not shown) [compound 134] | inactive |
| CCSCC(C)(O)c1cc2cc(Cl)c(C#N)cc2[nH]1 (single isomer, unassigned) [compound 228] | inactive |
| CCS(=O)(=O)CC(C)(O)c1cc2cc([N+](=O)[O-])c(C(F)(F)F)cc2n1C (single isomer, unassigned) [compound 232] | active |
| CCSCC(C)(O)c1cc2cc([N+](=O)[O-])c(C(F)(F)F)cc2o1 (racemic) [compound 9] | inactive |
| CCS(=O)(=O)CC(O)c1cc2cc(C#N)c(C(F)(F)F)cc2[nH]1 (racemic) [compound 412] | inactive |
| CC(C)(O)c1[nH]c2cc(C(F)(F)F)c(C#N)cc2c1Br [compound 288] | active |
| CCSCC(C)(O)c1cc2cc(C#N)c(C)c(I)c2[nH]1 (racemic) [compound 415] | inactive |
| O=[N+]([O-])c1cc2cc(C3(O)CCSC3)[nH]c2cc1C(F)(F)F (stereo not shown) [compound 18] | inactive |
| CCSCC(C)(O)c1cc2cc([N+](=O)[O-])c(C(F)(F)F)cc2[nH]1 (racemic) [compound 153] | inactive |
| CC(O)(c1cc2cc(C#N)c(C(F)(F)F)cc2n1CC#N)C(F)(F)F (racemic) [compound 331] | active |
| CC(C)(O)c1[nH]c2cc(C(F)(F)F)c(Cl)cc2c1I [compound 279] | inactive |
| CC(C)(O)c1cc2cc(Cl)c(Cl)cc2[nH]1 [compound 405] | inactive |
| CCSCC(C)(O)c1cc2cc(C#N)c(C(F)(F)F)cc2n1CC(F)(F)F (racemic) [compound 237] | active |
| CCSCC(O)c1cc2cc(C#N)c(C(F)(F)F)cc2[nH]1 (racemic) [compound 410] | inactive |
| CC(C)(O)c1[nH]c2cc(C(F)(F)F)c([N+](=O)[O-])cc2c1C#N [compound 291] | active |
| CC(C)(O)c1[nH]c2cc(C(F)(F)F)c(C#N)cc2c1Cl [compound 287] | inactive |
| CC(O)(CSCc1ccccn1)c1cc2cc([N+](=O)[O-])c(C(F)(F)F)cc2[nH]1 (racemic) [compound 204] | inactive |
| CC(C)(O)c1cc2cc(Br)ccc2[nH]1 [compound 294] | inactive |
| CC(C)(O)c1[nH]c2cc(C(F)(F)F)c([N+](=O)[O-])cc2c1I [compound 276] | active |
| CCS(=O)(=O)CC(C)(O)c1cc2cc(C#N)c(C(F)(F)F)cc2[nH]1 (racemic) [compound 407] | inactive |
| CC(O)(c1cc2cc(C#N)c(C(F)(F)F)cc2[nH]1)C(F)(F)F (stereo not shown) [Compound #335, 2-(2,2,2-Trifluoro-1-hydroxy-1-methyl-ethyl)-6-trifluoromethyl-1H-indole-5-carbonitrile] | active |
| Cc1c(C(C)(C)O)[nH]c2cc(C(F)(F)F)c([N+](=O)[O-])cc12 [compound 290] | inactive |
| CCSCC(C)(OC)c1cc2cc([N+](=O)[O-])c(C(F)(F)F)cc2[nH]1 (stereo not shown) [compound 167] | active |
| CCSCC(O)(c1cc2cc(C#N)c(C(F)(F)F)cc2[nH]1)C(F)(F)F (racemic) [compound 327] | active |
| CCSCC(C)(O)c1cc2cc(Cl)c(C(F)(F)F)cc2n1S(C)(=O)=O (racemic) [compound 146] | inactive |
| CCSCC(C)(O)c1[nH]c2cc(C(F)(F)F)c([N+](=O)[O-])cc2c1I (single isomer, unassigned) [compound 241] | inactive |
| CC(C)(O)c1cc2cc([N+](=O)[O-])c(C(F)(F)F)cc2[nH]1 [compound 274] | inactive |
